Test results taken from patent US11420958B2, “Aryl and heteroaryl substituted indole compounds” (BRISTOL-MYERS SQUIBB COMPANY, priority 2017, dated 2022).

Columns and labels:
Assay type in all cases: cell-based
human TLR7 = human TLR7 (Homo sapiens (Human), UniProt Q9NYK1); test: TLR7 inhibition reporter assay (HEK-Blue, SEAP); details: HEK-Blue cells overexpressing human TLR7, gardiquimod 7.5 μM stimulation
In short: (§1)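 HEK-Blue cells overexpressing the receptor carry a SEAP reporter under IFN-β minimal promoter with NF-κB/AP-1 sites. Compounds (0.05 nM–50 μM final) were preincubated 30 min at room temperature, then cells were stimulated with gardiquimod 7.5 μM (TLR7), R848 15.9 μM (TLR8) or ODN2006 5 nM (TLR9) for 22 h at 37 °C.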

human TLR8 = human TLR8 (Homo sapiens (Human), UniProt Q9NR97); test: TLR8 inhibition reporter assay (HEK-Blue, SEAP); details: HEK-Blue cells overexpressing human TLR8, R848 15.9 μM stimulation
In short: as §1

human TLR9 = human TLR9 (Homo sapiens (Human), UniProt Q9NR96); test: TLR9 inhibition reporter assay (HEK-Blue, SEAP); details: HEK-Blue cells overexpressing human TLR9, ODN2006 5 nM stimulation
In short: as §1

Sequence of human TLR8 (Q9NR97 27-1041): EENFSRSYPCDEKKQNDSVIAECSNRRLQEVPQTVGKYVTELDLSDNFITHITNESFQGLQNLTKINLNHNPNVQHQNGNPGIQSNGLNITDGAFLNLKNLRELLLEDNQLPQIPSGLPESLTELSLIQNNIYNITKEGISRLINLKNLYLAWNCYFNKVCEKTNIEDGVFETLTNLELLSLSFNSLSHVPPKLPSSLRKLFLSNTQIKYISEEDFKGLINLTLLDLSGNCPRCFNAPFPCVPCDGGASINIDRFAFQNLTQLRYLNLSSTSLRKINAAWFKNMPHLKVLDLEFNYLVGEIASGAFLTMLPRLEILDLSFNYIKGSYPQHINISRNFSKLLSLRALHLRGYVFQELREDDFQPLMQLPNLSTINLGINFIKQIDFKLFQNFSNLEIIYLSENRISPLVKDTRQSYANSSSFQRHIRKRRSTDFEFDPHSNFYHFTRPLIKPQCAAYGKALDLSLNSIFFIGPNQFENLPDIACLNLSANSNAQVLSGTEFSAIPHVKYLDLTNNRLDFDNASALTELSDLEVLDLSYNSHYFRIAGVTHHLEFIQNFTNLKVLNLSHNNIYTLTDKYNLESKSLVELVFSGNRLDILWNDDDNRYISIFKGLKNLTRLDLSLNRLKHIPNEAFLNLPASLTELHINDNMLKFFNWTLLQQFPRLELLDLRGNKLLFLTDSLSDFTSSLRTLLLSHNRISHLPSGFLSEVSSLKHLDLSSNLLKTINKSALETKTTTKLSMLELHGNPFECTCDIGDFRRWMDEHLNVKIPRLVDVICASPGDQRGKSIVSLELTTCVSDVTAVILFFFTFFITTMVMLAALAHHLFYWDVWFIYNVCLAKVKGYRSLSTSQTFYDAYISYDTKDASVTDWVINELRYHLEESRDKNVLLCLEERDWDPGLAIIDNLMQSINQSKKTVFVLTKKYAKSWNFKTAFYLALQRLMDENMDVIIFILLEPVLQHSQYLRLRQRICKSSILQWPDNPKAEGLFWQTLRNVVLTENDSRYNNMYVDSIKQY
Sequence of human TLR7 (Q9NYK1 27-1049): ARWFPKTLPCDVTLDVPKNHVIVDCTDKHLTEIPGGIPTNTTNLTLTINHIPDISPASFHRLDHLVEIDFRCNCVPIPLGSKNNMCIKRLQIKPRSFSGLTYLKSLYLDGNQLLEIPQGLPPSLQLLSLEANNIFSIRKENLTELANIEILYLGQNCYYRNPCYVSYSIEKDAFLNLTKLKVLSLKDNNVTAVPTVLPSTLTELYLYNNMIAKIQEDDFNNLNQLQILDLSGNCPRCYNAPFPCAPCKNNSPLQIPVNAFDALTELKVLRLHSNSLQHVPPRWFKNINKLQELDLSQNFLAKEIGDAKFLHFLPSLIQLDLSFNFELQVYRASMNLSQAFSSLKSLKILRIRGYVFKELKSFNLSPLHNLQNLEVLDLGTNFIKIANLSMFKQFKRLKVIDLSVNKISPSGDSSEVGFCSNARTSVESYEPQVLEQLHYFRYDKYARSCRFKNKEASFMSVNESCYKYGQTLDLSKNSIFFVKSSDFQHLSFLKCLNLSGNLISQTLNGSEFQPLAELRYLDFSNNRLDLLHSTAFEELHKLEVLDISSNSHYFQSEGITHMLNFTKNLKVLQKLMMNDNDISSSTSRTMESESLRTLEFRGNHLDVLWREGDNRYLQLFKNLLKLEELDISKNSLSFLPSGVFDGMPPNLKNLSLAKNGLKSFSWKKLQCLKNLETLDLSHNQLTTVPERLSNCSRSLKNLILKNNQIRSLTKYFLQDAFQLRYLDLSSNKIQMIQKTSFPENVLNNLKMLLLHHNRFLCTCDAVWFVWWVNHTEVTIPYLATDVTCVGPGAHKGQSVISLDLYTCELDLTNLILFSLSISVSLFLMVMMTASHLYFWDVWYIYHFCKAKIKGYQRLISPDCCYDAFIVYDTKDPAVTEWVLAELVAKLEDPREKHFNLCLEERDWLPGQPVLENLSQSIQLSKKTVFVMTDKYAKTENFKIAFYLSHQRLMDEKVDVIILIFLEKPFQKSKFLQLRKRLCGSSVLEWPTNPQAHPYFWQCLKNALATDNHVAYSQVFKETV
Sequence of human TLR9 (Q9NR96 26-1032): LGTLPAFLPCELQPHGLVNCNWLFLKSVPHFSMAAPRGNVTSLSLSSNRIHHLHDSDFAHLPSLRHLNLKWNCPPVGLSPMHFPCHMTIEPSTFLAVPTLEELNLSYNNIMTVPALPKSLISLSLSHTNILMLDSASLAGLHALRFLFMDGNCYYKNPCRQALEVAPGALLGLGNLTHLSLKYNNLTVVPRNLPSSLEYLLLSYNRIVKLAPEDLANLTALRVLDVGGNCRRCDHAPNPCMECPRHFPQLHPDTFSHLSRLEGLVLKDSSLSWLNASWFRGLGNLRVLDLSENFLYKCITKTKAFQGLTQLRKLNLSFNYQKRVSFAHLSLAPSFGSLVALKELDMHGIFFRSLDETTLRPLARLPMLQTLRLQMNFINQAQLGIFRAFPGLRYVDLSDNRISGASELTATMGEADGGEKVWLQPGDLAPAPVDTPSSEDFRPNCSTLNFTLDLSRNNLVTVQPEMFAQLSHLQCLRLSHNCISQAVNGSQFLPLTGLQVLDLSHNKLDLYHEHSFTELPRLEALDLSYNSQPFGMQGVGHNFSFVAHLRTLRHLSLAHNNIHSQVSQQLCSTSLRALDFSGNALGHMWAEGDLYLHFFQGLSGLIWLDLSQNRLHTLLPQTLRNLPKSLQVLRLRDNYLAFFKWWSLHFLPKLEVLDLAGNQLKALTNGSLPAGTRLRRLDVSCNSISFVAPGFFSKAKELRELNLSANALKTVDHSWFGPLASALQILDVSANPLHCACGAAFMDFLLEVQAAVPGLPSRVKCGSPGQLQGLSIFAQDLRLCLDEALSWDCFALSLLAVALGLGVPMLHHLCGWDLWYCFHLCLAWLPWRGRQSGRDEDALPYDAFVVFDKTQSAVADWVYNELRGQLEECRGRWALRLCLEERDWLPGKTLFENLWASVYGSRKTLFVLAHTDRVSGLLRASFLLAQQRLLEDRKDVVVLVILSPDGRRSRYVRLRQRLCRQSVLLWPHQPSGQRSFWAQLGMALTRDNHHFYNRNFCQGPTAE

| SMILES | IC50 (human TLR7) [nM] | IC50 (human TLR8) [nM] | IC50 (human TLR9) [nM] |
| --- | --- | --- | --- |
| CC(C)c1c(-c2ccnc3[nH]ncc23)[nH]c2ccc(-c3nnc(C4CCCN(C)C4)o3)cc12 (stereo not drawn) [Example 162, 2-(3-isopropyl-2-(1H-pyrazolo[3,4-b]pyridin-4-yl)-1H-indol-5-yl)-5-(1-methylpiperidin-3-yl)-1,3,4-oxadiazole] | 52 | 1.7 | 1380 |
| Cc1cc(-c2[nH]c3ccc(-c4nnc(C5CCN(Cc6ccccc6)CC5)[nH]4)cc3c2C(C)C)ccn1 [Example 163, 5-(5-(1-benzylpiperidin-4-yl)-4H-1,2,4-triazol-3-yl)-3-isopropyl-2-(2-methylpyridin-4-yl)-1H-indole] | 33 | 8.6 | 690 |
| Cc1cc(-c2[nH]c3ccc(-c4nnc(C5CCCNC5)[nH]4)cc3c2C(C)C)ccn1 (stereo not drawn) [Example 164, 3-isopropyl-2-(2-methylpyridin-4-yl)-5-(5-(piperidin-3-yl)-4H-1,2,4-triazol-3-yl)-1H-indole] | 45 | 27 | 10400 |
| COc1ccc(-c2[nH]c3ccc(-c4ncc[nH]4)cc3c2C(C)C)cc1OC [Example 165, 2-(3,4-dimethoxyphenyl)-5-(1H-imidazol-2-yl)-3-isopropyl-1H-indole] | 93 | 7.3 | 6690 |
| CC(C)c1c(-c2ccnc(N)c2)[nH]c2ccc(-c3nnc(C(=O)N(C)C)o3)cc12 [Example 166, 5-(2-(2-aminopyridin-4-yl)-3-isopropyl-H-indol-5-yl)-N,N-dimethyl-1,3,4-oxadiazole-2-carboxamide] | 284 | 47 | 29500 |
| CC(C)c1c(-c2ccnc3[nH]ncc23)[nH]c2ccc(-c3nnc(C4CCCN(C)C4)o3)cc12 (stereo not drawn) [Example 167, 2-(3-isopropyl-2-(1H-pyrazolo[3,4-b]pyridin-4-yl)-1H-indol-5-yl)-5-(1-methylpiperidin-3-yl)-1,3,4-oxadiazole] | 66 | 3.2 | 653 |
| CC(C)c1c(-c2ccnc3[nH]ncc23)[nH]c2ccc(-c3nnc(C4CCCN(C)C4)o3)cc12 (stereo not drawn) [Example 168, 2-(3-isopropyl-2-(1H-pyrazolo[3,4-b]pyridin-4-yl)-1H-indol-5-yl)-5-(1-methylpiperidin-3-yl)-1,3,4-oxadiazole] | 81 | 1.9 | 1080 |
| Cc1cc(-c2[nH]c3ccc(-c4nnc(C5CCCN(C)C5)o4)cc3c2C(C)C)ccn1 (stereo not drawn) [Example 169, 2-(3-isopropyl-2-(2-methylpyridin-4-yl)-1H-indol-5-yl)-5-(1-methylpiperidin-3-yl)-1,3,4-oxadiazole] | 27 | 1.8 | 564 |
| Cc1cc(-c2[nH]c3ccc(-c4nnc(C5CCCN(C)C5)o4)cc3c2C(C)C)ccn1 (stereo not drawn) [Example 170, 2-(3-isopropyl-2-(2-methylpyridin-4-yl)-1H-indol-5-yl)-5-(1-methylpiperidin-3-yl)-1,3,4-oxadiazole] | 11 | 0.6 | 660 |
| Cc1cc(-c2[nH]c3ccc(-c4nccs4)cc3c2C(C)C)ccn1 [Example 171, 2-(3-isopropyl-2-(2-methylpyridin-4-yl)-1H-indol-5-yl)thiazole] | 159 | 19 | > 50000 |
| Cc1cc(-c2[nH]c3ccc(-c4nc(C(=O)N5CC6CNCC6C5)co4)cc3c2C(C)C)ccn1 (stereo not drawn) [Example 172, (hexahydropyrrolo[3,4-c]pyrrol-2(1H)-yl)(2-(3-isopropyl-2-(2-methylpyridin-4-yl)-1H-indol-5-yl)oxazol-4-yl)methanone] | 49 | 2.3 | 2150 |
| Cc1cc(-c2[nH]c3ccc(-c4nc(C(=O)NC5CCN(C(C)C)CC5)co4)cc3c2C(C)C)ccn1 [Example 173, 2-(3-isopropyl-2-(2-methylpyridin-4-yl)-1H-indol-5-yl)-N-(1-isopropylpiperidin-4-yl)oxazole-4-carboxamide] | 46 | 2.9 | 1840 |
| Cc1cc(-c2[nH]c3ccc(-c4nnc(N)o4)cc3c2C(C)C)ccn1 [Example 174, 5-(3-isopropyl-2-(2-methylpyridin-4-yl)-1H-indol-5-yl)-1,3,4-oxadiazol-2-amine] | 53 | 14 | 44300 |
| CNC(=O)CN1CCCC(c2nnc(-c3ccc4[nH]c(-c5ccnc(C)c5)c(C(C)C)c4c3)[nH]2)C1 (stereo not drawn) [Example 175, 2-(3-(5-(3-isopropyl-2-(2-methylpyridin-4-yl)-1H-indol-5-yl)-4H-1,2,4-triazol-3-yl)piperidin-1-yl)-N-methylacetamide] | 560 | 7.4 | > 50000 |
| Cc1cc(-c2[nH]c3ccc(-c4nnc(C5CCCN(C(=O)CN(C)C)C5)[nH]4)cc3c2C(C)C)ccn1 (stereo not drawn) [Example 176, 2-(dimethylamino)-1-(3-(5-(3-isopropyl-2-(2-methylpyridin-4-yl)-1H-indol-5-yl)-4H-1,2,4-triazol-3-yl)piperidin-1-yl)ethan-1-one] | 51 | 6.3 | 1920 |
| CC(C)c1c(-c2ccnc3[nH]ncc23)[nH]c2ccc(-c3ccnc4[nH]ncc34)cc12 [Example 177, 4,4′-(3-isopropyl-1H-indole-2,5-diyl)bis(1H-pyrazolo[3,4-b]pyridine)] | 45 | 3.7 | 24100 |
| Cc1cc(-c2[nH]c3ccc(-c4nnc(C5CCCNC5)[nH]4)cc3c2C(C)C)ccn1 (stereo not drawn) [Example 178, 3-isopropyl-2-(2-methylpyridin-4-yl)-5-(5-(piperidin-3-yl)-4H-1,2,4-triazol-3-yl)-1H-indole] | 220 | 12 | 3990 |
| Cc1cc(-c2[nH]c3ccc(-c4nnc(C5CCCC(N)C5)o4)cc3c2C(C)C)ccn1 (stereo not drawn) [Example 179, 3-(5-(3-isopropyl-2-(2-methylpyridin-4-yl)-1H-indol-5-yl)-1,3,4-oxadiazol-2-yl)cyclohexan-1-amine] | 980 | 6 | 2790 |
| Cc1cc(-c2[nH]c3ccc(-c4nnc(C5CCCN(CC(=O)N(C)C)C5)[nH]4)cc3c2C(C)C)ccn1 (stereo not drawn) [Example 180, 2-(3-(5-(3-isopropyl-2-(2-methylpyridin-4-yl)-1H-indol-5-yl)-4H-1,2,4-triazol-3-yl)piperidin-1-yl)-N,N-dimethylacetamide] | 31 | 2.2 | 872 |
| CC(C)c1c(-c2ccnc3n[nH]cc23)[nH]c2ccc(-c3nccs3)cc12 [Example 181, 2-(3-isopropyl-2-(2H-pyrazolo[3,4-b]pyridin-4-yl)-1H-indol-5-yl)thiazole] | 680 | 36 | 35100 |
| CC(C)c1c(-c2ccnc3[nH]ncc23)[nH]c2ccc(-c3nnc(CC4CCCNC4)o3)cc12 (stereo not drawn) [Example 182, 2-(3-isopropyl-2-(1H-pyrazolo[3,4-b]pyridin-4-yl)-1H-indol-5-yl)-5-(piperidin-3-ylmethyl)-1,3,4-oxadiazole] | 332 | 44 | 595 |
| CC(C)c1c(-c2ccnc3n[nH]cc23)[nH]c2ccc(-c3nc(C(=O)NC4CCN(C(C)C)CC4)co3)cc12 [Example 183, 2-(3-isopropyl-2-(2H-pyrazolo[3,4-b]pyridin-4-yl)-1H-indol-5-yl)-N-(1-isopropylpiperidin-4-yl)oxazole-4-carboxamide] | 137 | 5.8 | 427 |
| Cc1cc(-c2[nH]c3ccc(-c4nnc(C5CCCNC5)[nH]4)cc3c2C(C)C)ccn1 (stereo not drawn) [Example 184, 3-isopropyl-2-(2-methylpyridin-4-yl)-5-(5-(piperidin-3-yl)-4H-1,2,4-triazol-3-yl)-1H-indole] | 71 | 77 | 7480 |
| Cc1cc(-c2[nH]c3ccc(-c4nnc(C5CCN(CC(=O)N(C)C)CC5)[nH]4)cc3c2C(C)C)ccn1 [Example 185, 2-(4-(5-(3-isopropyl-2-(2-methylpyridin-4-yl)-1H-indol-5-yl)-4H-1,2,4-triazol-3-yl)piperidin-1-yl)-N,N-dimethylacetamide] | 84 | 3.3 | 7590 |
| Cc1cc(-c2[nH]c3ccc(-c4nnc(C5CCN(C(=O)CN(C)C)CC5)[nH]4)cc3c2C(C)C)ccn1 [Example 186, 2-(dimethylamino)-1-(4-(5-(3-isopropyl-2-(2-methylpyridin-4-yl)-1H-indol-5-yl)-4H-1,2,4-triazol-3-yl)piperidin-1-yl)ethan-1-one] | 28 | 16 | 1500 |
| Cc1cc(-c2[nH]c3ccc(-c4nnc(C5CCN(C(C)C)CC5)[nH]4)cc3c2C(C)C)ccn1 [Example 187, 3-isopropyl-5-(5-(1-isopropylpiperidin-4-yl)-4H-1,2,4-triazol-3-yl)-2-(2-methylpyridin-4-yl)-1H-indole] | 70 | 6.7 | 4100 |
| Cc1cc(-c2[nH]c3ccc(-c4nnc(C5CCCN(C(C)C)C5)[nH]4)cc3c2C(C)C)ccn1 (stereo not drawn) [Example 188, 3-isopropyl-5-(5-(1-isopropylpiperidin-3-yl)-4H-1,2,4-triazol-3-yl)-2-(2-methylpyridin-4-yl)-1H-indole] | 28 | 3 | 328 |
| Cc1cc(-c2[nH]c3ccc(-c4nc(C5CCNCC5)c[nH]4)cc3c2C(C)C)ccn1 [Example 189, 3-isopropyl-2-(2-methylpyridin-4-yl)-5-(4-(piperidin-4-yl)-1H-imidazol-2-yl)-1H-indole] | 175 | 43 | 921 |
